ChEMBL document CHEMBL1201862, “PubChem BioAssay data set” (2004)
Activity calls are given as the source filed them.

What was measured:
[1] = target: Mu-type opioid receptor (Homo sapiens, UniProt P35372); experiment: SAR Analysis of Antagonists of the MOR Receptor using an Image-Based Assay - Set 3. [Related pubchem assays (depositor defined):AID1777, AID1785, AID1786, AID1966, AID2133, AID2136, AID2284, AID2285, AID2420]; type: functional
[2] = target: T1, Kappa-type opioid receptor (Homo sapiens, UniProt P41145); experiment: SAR analysis of small molecule antagonists of the kappa opioid receptor via a luminescent beta-arrestin assay - Set 4. [Related pubchem assays (depositor defined):AID1777, AID1778, AID1785, AID1786, AID1966, AID2133, AID2136, AID2285]; type: functional
T1 sequence (P41145 whole entry): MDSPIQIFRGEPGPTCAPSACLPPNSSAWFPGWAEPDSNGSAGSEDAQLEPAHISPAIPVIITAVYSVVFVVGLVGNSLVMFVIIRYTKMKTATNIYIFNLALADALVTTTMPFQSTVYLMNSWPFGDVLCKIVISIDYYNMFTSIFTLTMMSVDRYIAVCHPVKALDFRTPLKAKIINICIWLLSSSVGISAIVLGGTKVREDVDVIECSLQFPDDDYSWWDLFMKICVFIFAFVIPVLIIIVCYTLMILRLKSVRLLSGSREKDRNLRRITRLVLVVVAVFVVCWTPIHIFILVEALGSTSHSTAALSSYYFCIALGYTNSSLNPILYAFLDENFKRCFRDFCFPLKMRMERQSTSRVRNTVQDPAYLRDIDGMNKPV

[3] = target: T1, Kappa-type opioid receptor; experiment: SAR analysis of Antagonists of the Kappa Opioid Receptor (KOR) using an Image-Based Assay - Set 4. [Related pubchem assays (depositor defined):AID1777, AID1785]; type: functional
[4] = target: Delta-type opioid receptor (Homo sapiens, UniProt P41143); experiment: SAR Analysis of Antagonists of the DOR Receptor using an Image-Based Assay - Set 3. [Related pubchem assays (depositor defined):AID1777, AID1785]; type: functional;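 further: U2OS cells expressing DOR1 and beta-arrestin GFP stimulated with 100 nM SNC80; imaging of GFP-tagged beta-arrestin moving into spots after receptor activation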
Sequence of Delta-type opioid receptor (P41143 whole entry): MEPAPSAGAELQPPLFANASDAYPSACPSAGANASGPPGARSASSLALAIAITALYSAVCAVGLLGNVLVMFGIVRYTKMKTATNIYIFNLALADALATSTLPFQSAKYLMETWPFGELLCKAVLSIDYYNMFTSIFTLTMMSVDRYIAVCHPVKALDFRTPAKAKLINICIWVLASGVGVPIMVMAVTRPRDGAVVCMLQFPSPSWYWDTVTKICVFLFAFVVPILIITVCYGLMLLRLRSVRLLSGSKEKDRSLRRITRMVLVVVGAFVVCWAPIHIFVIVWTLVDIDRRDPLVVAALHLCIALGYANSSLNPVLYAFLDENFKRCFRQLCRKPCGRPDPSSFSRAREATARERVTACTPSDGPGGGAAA

[5] = cytotoxicity in HEK-293T cells, dose response, cytotoxicity control for TCR NF-kB inhibitor project, luminescence, T-cell screen hits (AID 489026); type: functional, cell-based;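 further: cells exposed to compound about 14 hours before the viability readout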
[6] = target: T2, Beta-galactosidase (Escherichia coli, UniProt Q8VNN2); experiment: PubChem AID 485352; type: functional
T2 sequence (Q8VNN2 whole entry): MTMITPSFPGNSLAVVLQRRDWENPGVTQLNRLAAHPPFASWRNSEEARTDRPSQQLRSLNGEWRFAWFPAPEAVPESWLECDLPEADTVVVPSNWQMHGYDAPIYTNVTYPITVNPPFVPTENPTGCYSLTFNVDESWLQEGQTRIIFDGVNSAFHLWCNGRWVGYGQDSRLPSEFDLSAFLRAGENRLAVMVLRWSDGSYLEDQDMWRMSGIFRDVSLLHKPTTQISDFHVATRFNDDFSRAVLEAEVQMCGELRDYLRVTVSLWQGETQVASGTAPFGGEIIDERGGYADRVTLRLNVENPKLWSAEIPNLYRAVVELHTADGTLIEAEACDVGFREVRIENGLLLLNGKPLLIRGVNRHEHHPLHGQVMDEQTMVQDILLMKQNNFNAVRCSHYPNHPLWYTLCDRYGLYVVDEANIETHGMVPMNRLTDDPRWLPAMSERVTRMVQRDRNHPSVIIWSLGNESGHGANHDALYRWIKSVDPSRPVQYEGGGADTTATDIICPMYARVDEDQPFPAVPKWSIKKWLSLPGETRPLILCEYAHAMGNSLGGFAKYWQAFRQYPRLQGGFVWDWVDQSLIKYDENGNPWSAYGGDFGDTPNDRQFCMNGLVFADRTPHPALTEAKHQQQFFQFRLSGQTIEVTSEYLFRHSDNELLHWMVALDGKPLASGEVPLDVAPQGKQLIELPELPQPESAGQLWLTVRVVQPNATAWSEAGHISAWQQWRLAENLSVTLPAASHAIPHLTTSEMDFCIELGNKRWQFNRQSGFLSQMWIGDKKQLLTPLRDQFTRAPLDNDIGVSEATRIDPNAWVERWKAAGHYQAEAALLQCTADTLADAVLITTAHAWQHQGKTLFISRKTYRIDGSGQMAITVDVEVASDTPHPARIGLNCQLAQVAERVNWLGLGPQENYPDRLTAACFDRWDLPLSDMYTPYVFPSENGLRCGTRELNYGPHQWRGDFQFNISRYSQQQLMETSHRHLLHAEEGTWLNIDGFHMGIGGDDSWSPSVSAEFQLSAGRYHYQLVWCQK

[7] = target: E3 ubiquitin-protein ligase Mdm2 (Homo sapiens, UniProt Q00987); experiment: enhancers of MDM2-luciferase reporter signal, concentration-effect titration, project on inhibitors of MDM2 ubiquitin ligase, cellular assay, luminescent readout, 384-well plate format (AID 1394); type: functional;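 further: MDM2 E3 inhibitors raise luminescence so EC50 is for signal enhancement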
Sequence of E3 ubiquitin-protein ligase Mdm2 (Q00987 whole entry): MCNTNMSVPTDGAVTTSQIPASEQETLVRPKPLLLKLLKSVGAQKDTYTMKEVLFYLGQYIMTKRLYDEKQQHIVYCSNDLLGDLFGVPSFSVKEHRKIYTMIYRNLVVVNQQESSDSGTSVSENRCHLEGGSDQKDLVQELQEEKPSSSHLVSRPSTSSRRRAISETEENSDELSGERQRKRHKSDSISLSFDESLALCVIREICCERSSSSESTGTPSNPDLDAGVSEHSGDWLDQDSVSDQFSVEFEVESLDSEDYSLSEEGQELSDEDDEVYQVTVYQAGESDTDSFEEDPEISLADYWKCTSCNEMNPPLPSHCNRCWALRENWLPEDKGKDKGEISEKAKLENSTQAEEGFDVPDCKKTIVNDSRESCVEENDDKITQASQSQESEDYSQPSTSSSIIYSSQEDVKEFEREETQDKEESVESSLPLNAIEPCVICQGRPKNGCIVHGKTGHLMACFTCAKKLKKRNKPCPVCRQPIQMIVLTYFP

[8] = target: T1, Kappa-type opioid receptor; type: functional
[9] = target: T3, Type-1 angiotensin II receptor (Homo sapiens, UniProt P30556); experiment: AT1 receptor antagonists, dose response, selectivity assay for APJ receptor antagonist project, cell-based, uHTS hits (AID 463214); type: functional;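 further: antagonist potency against angiotensin II stimulated AT1 response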
T3 sequence (P30556 whole entry): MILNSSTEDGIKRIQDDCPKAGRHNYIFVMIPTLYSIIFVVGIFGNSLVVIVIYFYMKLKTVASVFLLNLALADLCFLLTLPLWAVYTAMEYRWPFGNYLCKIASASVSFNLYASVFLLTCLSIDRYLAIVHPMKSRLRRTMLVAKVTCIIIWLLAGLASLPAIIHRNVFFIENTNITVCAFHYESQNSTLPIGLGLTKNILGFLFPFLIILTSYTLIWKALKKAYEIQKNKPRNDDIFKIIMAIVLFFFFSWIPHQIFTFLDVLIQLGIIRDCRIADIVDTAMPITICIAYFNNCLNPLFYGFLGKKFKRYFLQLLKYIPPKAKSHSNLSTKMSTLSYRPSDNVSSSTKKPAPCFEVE

[10] = target: T1, Kappa-type opioid receptor; type: functional; remark: listed apart in the source
[11] = target: T2, Beta-galactosidase; type: functional
[12] = Luminescence-based dose response cell-based high throughput screening assay for cytotoxic compounds using the IEC-6 intestinal epithelial cell line. [Related pubchem assays: 1858 (Summary AID.), 1825 (Counterscreen.), 1907 (Confirmation screen.)]; type: functional
[13] = cytotoxicity in BJeH fibroblasts, dose response, counter-screen for Ras selective lethality project, BJeH cells, dry powder (AID 493054); type: functional, cell-based
[14] = viability loss in HRASV12 DRD fibroblasts, dose response, cell-based, DRD BJ fibroblasts, dry powder (AID 493049); type: functional
[15] = cytotoxicity in BJeHLT fibroblasts, dose response, counter-screen for Ras selective lethality project, BJeHLT cells, dry powder (AID 493052); type: functional, cell-based; settings: Homo sapiens
[16] = viability loss in BJeLR (HRASV12) cells, primary screen, Ras selective lethality project, cell-based, Alamar Blue, dry powder (AID 493045); type: functional

Sequence of Mu-type opioid receptor (P35372 whole entry): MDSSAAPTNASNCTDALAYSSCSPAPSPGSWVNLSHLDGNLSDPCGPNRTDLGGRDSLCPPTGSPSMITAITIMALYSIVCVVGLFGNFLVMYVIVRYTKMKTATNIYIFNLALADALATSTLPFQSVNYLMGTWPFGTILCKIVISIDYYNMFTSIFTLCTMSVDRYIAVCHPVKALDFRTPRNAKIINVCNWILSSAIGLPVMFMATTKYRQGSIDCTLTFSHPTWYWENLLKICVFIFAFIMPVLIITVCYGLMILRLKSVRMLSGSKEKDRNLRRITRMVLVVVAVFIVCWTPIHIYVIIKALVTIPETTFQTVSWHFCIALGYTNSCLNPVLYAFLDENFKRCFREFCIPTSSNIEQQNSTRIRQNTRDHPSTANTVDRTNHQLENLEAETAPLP

Cc1ccc(S(=O)(=O)N2CCc3ccc(C(=O)NCCN(Cc4ccccc4)C(C)C)cc3C2)cc1
IC50 [1]: 2.89 µM (active)
IC50 [2]: 10.2 µM (inactive)
IC50 [3]: > 32 µM (inactive)
IC50 [4]: > 32 µM (inactive)

COc1ccc(C[S+]([O-])/C(Cl)=C(/Cl)C(=O)Nc2ccc(OC)nc2)cc1 (stereo unspecified)
IC50 [5]: 31.5 µM (inactive)
EC50 [6]: > 40 µM (inactive)
EC50 [7]: 0.56 µM (active)
IC50 [8]: 5.22 µM (active)
IC50 [9]: 2.92 µM (active)
IC50 [10]: 8.26 µM
EC50 [11]: > 31.5 µM (inactive)
IC50 [12]: 1.65 µM (active)

COc1ccc(N(C(=O)CCl)C(C(=O)NCCc2ccccc2)c2nc(C)cs2)cc1Cl (stereo unspecified)
AC50 [13]: 32.7 µM (active)
AC50 [14]: 8.54 µM (active)
AC50 [15]: 19.8 µM (active)
AC50 [16]: 8.26 µM (active)
